Assay results as given in PMC7578299, “The antiviral effects of baloxavir marboxil against influenza A virus infection in ferrets” (Influenza and Other Respiratory Viruses, 2020).
Where “and” joins values, the source holds several entries; their conditions need not be identical. Identical values can stand only once.

Assays:
[1] = tested on: Influenza A virus A/Kadoma/3/2006 (H1N1); test: Experiment 1: infected ferrets, treatment starting at Day 1 p.i. (virus titer in nasal washes, body temperature); format: in vivo, ferret; details: for reduction of virus titers by Day 2: treatment at Day 1 p.i.
[2] = Metabolic stability in liver microsomes, dog; format: in vitro ADME; details: for % Residual in liver microsome: 0.5 mg/mL, 2 μmol/L, 37°C, mean of duplicates; for % Residual in liver microsome Individual value: duplicates
Protocol: (§1) Liver microsomes were prepared from ferrets, rats, dogs, and monkeys, as previously described. ^28 Human liver microsomes were obtained from Sekisui‐XenoTech, LLC and pooled (n = 15). Metabolic stability of the compounds in liver microsomes was tested in duplicate. Oseltamivir and cefcapene pivoxil were used as reference compounds. Liver microsomes at 0.5 mg/mL concentration (final volume of 0.2 mL) were incubated in Tris‐HCl buffer (pH 7.4), containing 50 mmol/L Tris‐HCl, 150 mmol/L KCl, 10 mmol/L MgCl2. The hydrolysis reaction was initiated by applying the test compound solution (final concentration 2 μmol/L). After incubation for 10, 20, and 30 minutes at 37°C, the hydrolysis was terminated by the addition of twofold volume of ice‐cold acetonitrile/methanol (1:1, v/v). Samples were centrifuged at 3000 rpm for 10 minutes prior to LC‐MS/MS analysis of compounds in the supernatants.

[3] = tested on: cap-dependent endonuclease (CEN); design: method as in PMID 30316915; details: in vitro studies; cited from earlier work
[4] = Metabolic stability test, control (microsome free); format: in vitro ADME; details: microsome free; for % Residual, Control (Microsome free): 2 μmol/L, 37°C, mean of duplicates; for % Residual Individual value, Control (Microsome free): duplicates
Protocol: as §1

[5] = Metabolic stability in liver microsomes, human; format: in vitro ADME; details: for % Residual in liver microsome: 0.5 mg/mL, 2 μmol/L, 37°C, mean of duplicates; for % Residual in liver microsome Individual value: duplicates
Protocol: as §1

[6] = tested on: Influenza A virus A/Kadoma/3/2006 (H1N1); test: Experiment 2: infected ferrets, treatment starting at Day 2 p.i. (virus titer in nasal washes, body temperature); details: treatment from Day 2 p.i.; BXM 10 mg/kg twice daily 1 day

## COC(=O)OCOc1c2n(ccc1=O)N([C@@H]1c3ccccc3SCc3c1ccc(F)c3F)[C@@H]1COCCN1C2=O [BXM, Baloxavir marboxil]
[1]; BXM 10 mg/kg twice daily
  reduction of virus titers by Day 2: ≥ 3 log10 of the 50% tissue culture infective doses
[1]; BXM 30 mg/kg twice daily
  reduction of virus titers by Day 2: ≥ 3 log10 of the 50% tissue culture infective doses
[1]; Day 2 p.i., BXM 30 mg/kg twice daily for 1 day from Day 1 p.i., undetectable level
  virus titer in nasal washes: < 0.5 log10 TCID50/mL
[2]; 10 min
  % Residual in liver microsome: 0.1%
[2]; 20 min
  % Residual in liver microsome: 0.1%
[2]; 30 min
  % Residual in liver microsome: 0.0%
[2]; 10 minutes
  % Residual in liver microsome Individual value: 0.1%
[2]; 20 minutes
  % Residual in liver microsome Individual value: 0.1%
[2]; 30 minutes
  % Residual in liver microsome Individual value: 0.0% and 0.1%
[3]
  CEN inhibitory activity, fold lower than that of BXA: ≥ 200 fold
[4]; 10 min
  % Residual, Control (Microsome free): 81.3%
[4]; 20 min
  % Residual, Control (Microsome free): 81.7%
[4]; 30 min
  % Residual, Control (Microsome free): 92.1%
[4]; 10 minutes
  % Residual Individual value, Control (Microsome free): 72.2% and 90.3%
[4]; 20 minutes
  % Residual Individual value, Control (Microsome free): 81.2% and 82.1%
[4]; 30 minutes
  % Residual Individual value, Control (Microsome free): 86.1% and 98.1%
[5]; 10 min
  % Residual in liver microsome: 8.2%
[5]; 20 min
  % Residual in liver microsome: 0.3%
[5]; 30 min
  % Residual in liver microsome: 0.0%
[5]; 10 minutes
  % Residual in liver microsome Individual value: 8.4% and 8.0%
[5]; 20 minutes
  % Residual in liver microsome Individual value: 0.3% and 0.2%
[5]; 30 minutes
  % Residual in liver microsome Individual value: 0.0%
[6]
  body temperature changes over time (in words): a small but significant effect was observed with BXM compared with vehicle on Day 2
